pKi: −log10 of the molar value.
Assays:
[1] = molecular target: T1, OATP1B1 (Homo sapiens, UniProt Q9Y6L6); experiment: Determination of inhibition constant Ki for OATP1B1, rosuvastatin; assay type: cell-based; conditions: rosuvastatin 1-80 µM, 30 min preincubation, 2 min; read-out: Ki-value for the competitive inhibition of OATP1B1
T1 construct: expressed in transfected cells; host or cells: HEK293 (recombinant baculovirus-mediated transduction)
T1 sequence (Q9Y6L6 1-691): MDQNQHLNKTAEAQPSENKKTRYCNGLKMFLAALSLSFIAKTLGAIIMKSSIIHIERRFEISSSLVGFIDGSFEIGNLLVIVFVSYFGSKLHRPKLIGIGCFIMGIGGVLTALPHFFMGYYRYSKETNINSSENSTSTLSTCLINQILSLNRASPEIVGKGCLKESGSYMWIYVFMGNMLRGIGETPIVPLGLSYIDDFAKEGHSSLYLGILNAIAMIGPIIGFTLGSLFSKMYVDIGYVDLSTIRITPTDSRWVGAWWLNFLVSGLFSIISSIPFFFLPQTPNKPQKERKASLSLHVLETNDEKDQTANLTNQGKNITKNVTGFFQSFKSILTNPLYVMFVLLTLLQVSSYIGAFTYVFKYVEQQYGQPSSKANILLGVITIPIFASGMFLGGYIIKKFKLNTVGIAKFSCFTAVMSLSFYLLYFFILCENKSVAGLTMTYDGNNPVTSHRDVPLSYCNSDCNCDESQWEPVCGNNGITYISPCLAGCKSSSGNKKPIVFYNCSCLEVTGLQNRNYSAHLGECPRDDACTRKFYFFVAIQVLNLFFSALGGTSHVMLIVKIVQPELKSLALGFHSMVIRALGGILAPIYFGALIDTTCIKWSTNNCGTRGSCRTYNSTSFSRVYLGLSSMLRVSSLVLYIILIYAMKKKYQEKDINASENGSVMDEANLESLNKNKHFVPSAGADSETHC
Method: were removed and 300 µl of warm TP-buffer was added to each well and incubated for 5 min.
The washing was repeated twice , after which the transport assays were conducted in the presence of 1 µM 2′,7′ -dichlorofluorescein for 5 min. The wells that were pre -incubated with […]
incubated with the vehicle contained three different inhibitor concentrations. After the transport assays, the samples were treated and analyzed similarly as described in the main text and above. The uptake into vehicle control samples w as set to a value of 100% and all the inhibitor samples are presented relative to the vehicle control samples. […]
determined in a single experiment in triplicate samples by using 1 µM, 4 µM and 20 µM […]
µM, 2.5 µM, 10 µM, 20 µM, 40 µM and 80 µM). The assays included a 30 min preincubation step with the inhibitor , and the transport assays were conducted for 2 min . Further details are reported in the methods of the main text. The Ki value was calculated by fitting the com petitive inhibition model to the data with the nonlinear least squares method (nls) in R programming language environment (R version 4.3.1) :
Uptake refers to the rate of uptake in OATP1B1-expressing cells, after subtracting the uptake in control cells , Vmax is the maximum rate of transport, K m is the Michaelis constant, S is the […]
Efflux transport assays in HEK293 membrane vesicles […]

[2] = PBPK model input parameters (binding, absorption, distribution, elimination), Simcyp; design: species or system human
Method: The volume of distribution
at steady-state (Vss), predicted using the Rodgers and Rowland model (Model 2) within the
oral (PO) data.7–9,11,12,14,24 Only studies with 1000 mg dosing or lower were included in the
model development and verification due to the possible nonlinear renal clearance of
(CLH) as a human liver microsomal clearance from the in vivo CLH calculated by subtracting
the CLR from the total CL. The model for oral dosing was optimized using data from the study
by Putnam et al. (2005).9 The absorption rate constant (ka) was calculated from the reported
mean absorption time9 and the fraction absorbed (fa) was optimized manually. The obtained
Tissue distribution was described using the full-body PBPK model, with the tissue-to-plasma
partition coefficient (Kp) predicted based on the Rodgers and Rowland method integrated
within the simulator (Method 2). The Kp value for adipose was optimized manually (0.04 to

[3] = tested on: CYP3A4; conditions: model input; cited from earlier work
[4] = retrograde calculation from CLH (2.65 l/h)

SMILES	pKi [1]	CLH ([2]; Total CL – CLR)	CLu,int,CYP2C9 (µl/min/pmol P450) [2, 4]	CLu,int,CYP3A4 (µl/min/pmol P450) [2, 4]	CYP3A4 Indmax [3]
Cc1onc(-c2c(Cl)cccc2Cl)c1C(=O)N[C@@H]1C(=O)N2[C@@H]1SC(C)(C)[C@@H]2C(=O)O [Dicloxacillin]	5.44	–	–	–	–
Cc1onc(-c2c(F)cccc2Cl)c1C(=O)N[C@@H]1C(=O)N2[C@@H]1SC(C)(C)[C@@H]2C(=O)O [Flucloxacillin]	–	2.65 L/h	0.124 µl/min/pmol P450	0.062 µl/min/pmol P450	4.6

Reference: publication PMC12865225 (Clinical and Translational Science, 2026)
